What was measured:
[1] = target: T1, IR isolated from CHO-IR cells (Homo sapiens, UniProt P06213); experiment: 125I-insulin displacement assay in WGA-coated wells; assay type: binding; conditions: 1 nM 125I-labeled insulin; read-out: IC50 for displacement of IR-bound radioactive insulin
T1 construct: expressed in transfected cells; host or cells: CHO-IR cells (from Dr. Alan Saltiel's lab)
Procedure: (A) α-PGG binds to IR as measured by a SPR (28). Increasing concentrations of α-PGG was injected into the system to interact with the pure IR attached to the gold surface of the biosensor chip. The binding, represented in arbitrary response units, was automatically plotted against α-PGG concentrations to generate the binding curve. (B) Insulin binding to IR in the absence or presence of α-PGG. Increasing amounts of ^125I-labeled insulin were added to WGA-coated wells containing pre-bound IR isolated from CHO-IR cells in the absence of α-PGG or in the presence of 30 μM or 50 μM of α-PGG. After overnight incubation, removal of excessive ligands, and washing, the bound radioactive insulin was measured. (C) Insulin displacement by α-PGG. Fixed amounts of radioactive insulin (1 nM) were added to each of the WGA-coated wells pre-bound with IR. Increasing amounts of α-PGG were added to the wells to displace the ^125I-labeled insulin. […]
Insulin receptor binding studies. […] After sensograms of α-PGG-IR binding at different concentrations were recorded, the binding affinity was analyzed using BIAevaluation software. […] The bound ligand was detached (eluted) from the receptor with 2×200 μL 0.2M Glycine pH 2.8, and measured for its radioactivity using a Beckman Coulter LS 6400 Multi-Purpose Scintillation Counter. […] The receptor binding results were analyzed with the software GraphPad Prism.

[2] = test system: Akt; experiment: Akt phosphorylation, Western blot; assay type: cell-based; conditions: 3T3-L1 adipocytes, 20 or 40 μM, 15 min
Procedure: (A) Glucose transport was measured by determining [^3H]-2-deoxyglucose uptake stimulated by either insulin or α-PGG in 3T3-L1 cells in the presence or absence of HNMPA-(AM)3, an inhibitor of IR tyrosine kinase activity (24); wortmannin, an inhibitor of PI 3-kinase (25), or cytochalasin B, an inhibitor of GLUT4 (26), (n=4, mean±SD). (B) Cells were induced by 20 or 40 μM α-PGG or 100 nM insulin for 15 min. Cell lysates were separated by PAGE and analyzed for phosphorylation of IR (in CHO-IR cells) or Akt (in adipocytes) using antibodies specific to the target proteins. (C) Cells were treated with α-PGG and insulin in a fashion similar to (B) and assayed for their respective PI-3 kinase activity with a radioactive TLC method (27). (D) In similar experiments, intact cells were analyzed by confocal microscopy for translocation of GLUT4 using anti-GLUT4 antibodies.
Protein phosphorylation/activation and GLUT4 translocation. To investigate signal transduction induced by α-PGG, proteins from 3T3-L1 adipocytes or CHO-IR cells (23), which were treated with α-PGG or insulin for 15 min, were isolated, separated by PAGE, blotted on nylon membranes, and analyzed by Western blotting with antibodies against either IR or Akt. […]

T1 sequence (P06213 28-758 limits assumed): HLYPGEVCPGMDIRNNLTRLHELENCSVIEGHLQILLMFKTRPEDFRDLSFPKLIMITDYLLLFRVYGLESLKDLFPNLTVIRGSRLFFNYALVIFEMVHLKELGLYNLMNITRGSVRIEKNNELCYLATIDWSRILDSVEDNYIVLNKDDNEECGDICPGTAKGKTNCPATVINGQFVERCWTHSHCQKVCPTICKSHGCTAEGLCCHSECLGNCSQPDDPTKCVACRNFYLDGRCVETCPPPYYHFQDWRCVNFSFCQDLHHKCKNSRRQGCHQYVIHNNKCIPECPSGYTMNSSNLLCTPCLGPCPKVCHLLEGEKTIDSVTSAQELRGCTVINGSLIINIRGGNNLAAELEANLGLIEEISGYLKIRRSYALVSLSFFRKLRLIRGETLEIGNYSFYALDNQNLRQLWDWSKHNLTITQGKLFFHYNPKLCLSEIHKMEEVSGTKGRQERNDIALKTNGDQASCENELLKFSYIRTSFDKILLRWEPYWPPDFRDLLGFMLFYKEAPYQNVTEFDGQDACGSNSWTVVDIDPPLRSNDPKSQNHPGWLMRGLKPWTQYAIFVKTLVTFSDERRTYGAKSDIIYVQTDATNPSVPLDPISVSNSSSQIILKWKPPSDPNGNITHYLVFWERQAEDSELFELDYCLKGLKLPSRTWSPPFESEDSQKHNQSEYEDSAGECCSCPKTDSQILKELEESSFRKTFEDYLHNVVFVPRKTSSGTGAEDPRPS
T1 sequence (P06213 763-1382 partner limits assumed): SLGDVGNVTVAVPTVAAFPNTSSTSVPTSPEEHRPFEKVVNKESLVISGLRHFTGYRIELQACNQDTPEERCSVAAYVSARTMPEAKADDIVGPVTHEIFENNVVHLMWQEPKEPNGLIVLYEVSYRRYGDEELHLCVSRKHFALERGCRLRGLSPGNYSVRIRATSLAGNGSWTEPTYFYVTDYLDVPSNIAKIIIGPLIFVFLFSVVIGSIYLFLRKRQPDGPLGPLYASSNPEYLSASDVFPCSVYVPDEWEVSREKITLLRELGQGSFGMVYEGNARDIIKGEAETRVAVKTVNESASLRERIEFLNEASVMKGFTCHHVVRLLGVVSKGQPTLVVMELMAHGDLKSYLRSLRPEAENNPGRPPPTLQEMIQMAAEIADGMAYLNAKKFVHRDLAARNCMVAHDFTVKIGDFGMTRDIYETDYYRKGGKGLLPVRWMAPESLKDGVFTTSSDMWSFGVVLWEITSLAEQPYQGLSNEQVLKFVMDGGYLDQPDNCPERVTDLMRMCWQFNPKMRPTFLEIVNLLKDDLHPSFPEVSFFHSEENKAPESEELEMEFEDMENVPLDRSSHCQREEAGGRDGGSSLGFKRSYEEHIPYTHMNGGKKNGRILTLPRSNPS

Q: `O=C(OC[C@H]1O[C@H](OC(=O)c2cc(O)c(O)c(O)c2)[C@H](OC(=O)c2cc(O)c(O)c(O)c2)[C@@H](OC(=O)c2cc(O)c(O)c(O)c2)[C@@H]1OC(=O)c1cc(O)c(O)c(O)c1)c1cc(O)c(O)c(O)c1` [α-PGG, alpha 1,2,3,4,6-penta-O-galloyl-D-Glucopyranose] was tested. Which IC50 [1] did it give?
A: 10 ± 1 µM

Q: What about the Akt phosphorylation [2] of the same molecule?
A: phosphorylated in 3T3-L1 adipocytes in a dose-dependent fashion

From patent US7888042B2, “Methods for identifying insulin mimetics” (Ohio University, priority 2005, dated 2011)
